In US9249145B2, “Heterocyclic derivatives of pyrazol-4-yl-pyrrolo[2,3-d]pyrimidines as janus kinase inhibitors” (Incyte Holdings Corporation, priority 2009, dated 2016):

Experiments:
Jak2 (a.a. 828-1132) = target: T1, Jak2 (a.a. 828-1132) (Homo sapiens, UniProt O60674); assay: In vitro JAK kinase assay (HTRF, phosphorylation of biotinylated peptide), JAK2; assay type: biochemical; details: 1 mM ATP; Examples 92-162; read-out: JAK2 IC50 (nM) @ 1 mM ATP
T1 construct: Jak2 (a.a. 828-1132); His tag (N); made in house; host or cells: insect cells (baculovirus)
Procedure, shortened: (§1)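 His-tagged catalytic domains expressed in baculovirus/insect cells; biotinylated peptide (500 nM) phosphorylation in 50 mM Tris pH 7.8, 100 mM NaCl, 5 mM DTT, 0.01% BSA, 1 h room temperature. ATP at Km (JAK1 90 μM, JAK2 30 μM) or 1 mM. EDTA stop, Eu-Py20/SA-APC HTRF read; IC50.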

[1] = target: T2, human JAK1 (a.a. 837-1142) (Homo sapiens, UniProt P23458); assay: In vitro JAK kinase assay (HTRF, phosphorylation of biotinylated peptide), JAK1; assay type: biochemical; details: 1 mM ATP; Examples 92-162; read-out: JAK1 IC50 (nM) @ 1 mM ATP
T2 construct: The catalytic domains of human JAK1 (a.a. 837-1142); His tag (N); made in house; host or cells: insect cells (baculovirus)
Procedure, shortened: as §1

T2 sequence (P23458 849-1154): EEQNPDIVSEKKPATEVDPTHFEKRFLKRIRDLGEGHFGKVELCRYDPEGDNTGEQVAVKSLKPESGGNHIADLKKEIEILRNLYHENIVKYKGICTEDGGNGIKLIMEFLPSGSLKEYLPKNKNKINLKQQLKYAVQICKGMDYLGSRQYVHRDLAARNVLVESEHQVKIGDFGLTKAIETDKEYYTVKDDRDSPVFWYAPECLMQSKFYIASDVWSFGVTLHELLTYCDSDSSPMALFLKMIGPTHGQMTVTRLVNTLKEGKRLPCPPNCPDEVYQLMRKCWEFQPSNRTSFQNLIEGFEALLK
T1 sequence (O60674 828-1132): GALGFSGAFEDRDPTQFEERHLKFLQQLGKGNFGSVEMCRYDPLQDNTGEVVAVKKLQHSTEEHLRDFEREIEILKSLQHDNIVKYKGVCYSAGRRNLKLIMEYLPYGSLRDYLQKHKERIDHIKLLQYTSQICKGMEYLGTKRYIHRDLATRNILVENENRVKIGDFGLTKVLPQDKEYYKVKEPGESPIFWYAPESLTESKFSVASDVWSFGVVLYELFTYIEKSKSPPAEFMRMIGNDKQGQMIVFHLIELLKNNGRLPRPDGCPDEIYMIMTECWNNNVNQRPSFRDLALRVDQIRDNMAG

Row | Structure (SMILES) | IC50 (Jak2 (a.a. 828-1132)) [nM] | IC50 [1] [nM]
1 | CCC(CN1CCN(C(=O)c2ccc(F)cc2OC)CC1)n1cc(-c2ncnc3[nH]ccc23)cn1 (centres unmarked) [Example 125, (4-(2-(4-(7H-pyrrolo[2,3-d]pyrimidin-4-yl)-1H-pyrazol-1-yl)butyl)piperazin-1-yl)(4-fluoro-2-methoxyphenyl)methanone] | > 100 | 20 to 50
2 | CCC(CN1CCN(C(=O)c2cccs2)CC1)n1cc(-c2ncnc3[nH]ccc23)cn1 (centres unmarked) [Example 126, (4-(2-(4-(7H-pyrrolo[2,3-d]pyrimidin-4-yl)-1H-pyrazol-1-yl)butyl)piperazin-1-yl)(thiophen-2-yl)methanone] | > 100 | 20 to 50
3 | CCC(CN1CCN(S(=O)(=O)c2ccccc2C(F)(F)F)CC1)n1cc(-c2ncnc3[nH]ccc23)cn1 (centres unmarked) [Example 130, 4-(1-(1-(4-(2-(trifluoromethyl)phenylsulfonyl)piperazin-1-yl)butan-2-yl)-1H-pyrazol-4-yl)-7H-pyrrolo[2,3-d]pyrimidine] | 50 to 100 | < 20
4 | CCC(CN1CCN(S(=O)(=O)c2cn(C)nc2C(F)(F)F)CC1)n1cc(-c2ncnc3[nH]ccc23)cn1 (centres unmarked) [Example 133, 4-(1-(1-(4-(1-methyl-3-(trifluoromethyl)-1H-pyrazol-4-ylsulfonyl)piperazin-1-yl)butan-2-yl)-1H-pyrazol-4-yl)-7H-pyrrolo[2,3-d]pyrimidine] | > 100 | 20 to 50
5 | CCC(CN1CCN(S(=O)(=O)c2ccc(F)cc2)CC1)n1cc(-c2ncnc3[nH]ccc23)cn1 (centres unmarked) [Example 137, 4-(1-(1-(4-(4-fluorophenylsulfonyl)piperazin-1-yl)butan-2-yl)-1H-pyrazol-4-yl)-7H-pyrrolo[2,3-d]pyrimidine] | 50 to 100 | < 20
6 | CCC(CN1CCN(S(=O)(=O)c2cccc(C#N)c2)CC1)n1cc(-c2ncnc3[nH]ccc23)cn1 (centres unmarked) [Example 139, 3-(4-(2-(4-(7H-pyrrolo[2,3-d]pyrimidin-4-yl)-1H-pyrazol-1-yl)butyl)piperazin-1-ylsulfonyl)benzonitrile] | > 100 | 20 to 50
7 | CCC(CN1CCN(S(=O)(=O)c2ccc(F)cc2F)CC1)n1cc(-c2ncnc3[nH]ccc23)cn1 (centres unmarked) [Example 140, 4-(1-(1-(4-(2,4-difluorophenylsulfonyl)piperazin-1-yl)butan-2-yl)-1H-pyrazol-4-yl)-7H-pyrrolo[2,3-d]pyrimidine] | 50 to 100 | < 20
8 | CCC(CN1CCN(S(=O)(=O)c2cc(F)ccc2F)CC1)n1cc(-c2ncnc3[nH]ccc23)cn1 (centres unmarked) [Example 141, 4-(1-(1-(4-(2,5-difluorophenylsulfonyl)piperazin-1-yl)butan-2-yl)-1H-pyrazol-4-yl)-7H-pyrrolo[2,3-d]pyrimidine] | 50 to 100 | < 20
9 | CCC(CN1CCN(S(=O)(=O)c2cc(F)cc(F)c2)CC1)n1cc(-c2ncnc3[nH]ccc23)cn1 (centres unmarked) [Example 142, 4-(1-(1-(4-(3,5-difluorophenylsulfonyl)piperazin-1-yl)butan-2-yl)-1H-pyrazol-4-yl)-7H-pyrrolo[2,3-d]pyrimidine] | 50 to 100 | < 20
10 | CCC(CN1CCN(S(=O)(=O)c2ccc(F)cc2C)CC1)n1cc(-c2ncnc3[nH]ccc23)cn1 (centres unmarked) [Example 143, 4-(1-(1-(4-(4-floro-2-methylphenylsulfonyl)piperazin-1-yl)butan-2-yl)-1H-pyrazol-4-yl)-7H-pyrrolo[2,3-d]pyrimidine] | > 100 | < 20
11 | CCC(CN1CCN(S(=O)(=O)c2cn(C)c(C)n2)CC1)n1cc(-c2ncnc3[nH]ccc23)cn1 (centres unmarked) [Example 144, 4-(1-(1-(4-(1,2-dimethyl-1H-imidazol-4-ylsulfonyl)piperazin-1-yl)butan-2-yl)-1H-pyrazol-4-yl)-7H-pyrrolo[2,3-d]pyrimidine] | 50 to 100 | 20 to 50
12 | Cc1c(Nc2ccccc2)ncnc1N1CCC(C(CC#N)n2cc(-c3ncnc4[nH]ccc34)cn2)CC1 (centres unmarked) [Example 146, 3-[1-(6-anilino-5-methylpyrimidin-4-yl)piperidin-4-yl]-3-[4-(7H-pyrrolo[2,3-d]pyrimidin-4-yl)-1H-pyrazol-1-yl]propanenitrile] | > 100 | 20 to 50
13 | Cc1c(Nc2ccccc2F)ncnc1N1CCC(C(CC#N)n2cc(-c3ncnc4[nH]ccc34)cn2)CC1 (centres unmarked) [Example 147, 3-(4-(7H-pyrrolo[2,3-d]pyrimidin-4-yl)-1H-pyrazol-1-yl)-3-(1-(6-(2-fluorophenylamino)-5-methylpyrimidin-4-yl)piperidin-4-yl)propanenitrile] | > 100 | < 20
14 | Cc1c(Nc2cccc(F)c2)ncnc1N1CCC(C(CC#N)n2cc(-c3ncnc4[nH]ccc34)cn2)CC1 (centres unmarked) [Example 148, 3-(4-(7H-pyrrolo[2,3-d]pyrimidin-4-yl)-1H-pyrazol-1-yl)-3-(1-(6-(3-fluorophenylamino)-5-methylpyrimidin-4-yl)piperidin-4-yl)propanenitrile] | 50 to 100 | < 20
15 | Cc1c(Nc2cc(F)ccc2F)ncnc1N1CCC(C(CC#N)n2cc(-c3ncnc4[nH]ccc34)cn2)CC1 (centres unmarked) [Example 149, 3-(4-(7H-pyrrolo[2,3-d]pyrimidin-4-yl)-1H-pyrazol-1-yl)-3-(1-(6-(2,5-difluorophenylamino)-5-methylpyrimidin-4-yl)piperidin-4-yl)propanenitrile] | > 100 | < 20

Further lines, results first:

Row | IC50 (Jak2 (a.a. 828-1132)) [nM] | IC50 [1] [nM] | Structure (SMILES)
16 | 50 to 100 | < 20 | CCC(CN1CCN(C(=O)c2ccc(O)cc2Cl)CC1)n1cc(-c2ncnc3[nH]ccc23)cn1 (centres unmarked) [Example 122, (4-(2-(4-(7H-pyrrolo[2,3-d]pyrimidin-4-yl)-1H-pyrazol-1-yl)butyl)piperazin-1-yl)(2-chloro-4-hydroxyphenyl)methanone]
17 | < 20 | < 20 | CCC(CN1CCN(C(=O)c2ccc(O)cc2F)CC1)n1cc(-c2ncnc3[nH]ccc23)cn1 (centres unmarked) [Example 123, (4-(2-(4-(7H-pyrrolo[2,3-d]pyrimidin-4-yl)-1H-pyrazol-1-yl)butyl)piperazin-1-yl)(2-fluoro-4-hydroxyphenyl)methanone]
18 | 20 to 50 | < 20 | CCC(CN1CCN(C(=O)c2ccc(Cl)cc2F)CC1)n1cc(-c2ncnc3[nH]ccc23)cn1 (centres unmarked) [Example 124, (4-(2-(4-(7H-pyrrolo[2,3-d]pyrimidin-4-yl)-1H-pyrazol-1-yl)butyl)piperazin-1-yl)(4-chloro-2-fluorophenyl)methanone]
19 | 20 to 50 | < 20 | CCC(CN1CCN(S(=O)(=O)c2ccccc2)CC1)n1cc(-c2ncnc3[nH]ccc23)cn1 (centres unmarked) [Example 127, 4-(1-(1-(4-(phenylsulfonyl)piperazin-1-yl)butan-2-yl)-1H-pyrazol-4-yl)-7H-pyrrolo[2,3-d]pyrimidine]
20 | 50 to 100 | < 20 | CCC(CN1CCN(S(=O)(=O)c2ccccc2C#N)CC1)n1cc(-c2ncnc3[nH]ccc23)cn1 (centres unmarked) [Example 128, 2-(4-(2-(4-(7H-pyrrolo[2,3-d]pyrimidin-4-yl)-1H-pyrazol-1-yl)butyl)piperazin-1-ylsulfonyl)benzonitrile]
21 | 50 to 100 | 20 to 50 | CCC(CN1CCN(S(=O)(=O)c2ccc(C#N)cc2)CC1)n1cc(-c2ncnc3[nH]ccc23)cn1 (centres unmarked) [Example 129, 4-(4-(2-(4-(7H-pyrrolo[2,3-d]pyrimidin-4-yl)-1H-pyrazol-1-yl)butyl)piperazin-1-ylsulfonyl)benzonitrile]
22 | 20 to 50 | < 20 | CCC(CN1CCN(S(=O)(=O)c2cccc(C)n2)CC1)n1cc(-c2ncnc3[nH]ccc23)cn1 (centres unmarked) [Example 131, 4-(1-(1-(4-(6-methylpyridin-2-ylsulfonyl)piperazin-1-yl)butan-2-yl)-1H-pyrazol-4-yl)-7H-pyrrolo[2,3-d]pyrimidine]
23 | 20 to 50 | < 20 | CCC(CN1CCN(S(=O)(=O)c2ccccc2Cl)CC1)n1cc(-c2ncnc3[nH]ccc23)cn1 (centres unmarked) [Example 132, 4-(1-(1-(4-(2-chlorophenylsulfonyl)piperazin-1-yl)butan-2-yl)-1H-pyrazol-4-yl)-7H-pyrrolo[2,3-d]pyrimidine]
24 | 20 to 50 | < 20 | CCC(CN1CCN(S(=O)(=O)c2cccs2)CC1)n1cc(-c2ncnc3[nH]ccc23)cn1 (centres unmarked) [Example 134, 4-(1-(1-(4-(thiophen-2-ylsulfonyl)piperazin-1-yl)butan-2-yl)-1H-pyrazol-4-yl)-7H-pyrrolo[2,3-d]pyrimidine]
25 | 20 to 50 | < 20 | CCC(CN1CCN(S(=O)(=O)c2sccc2Cl)CC1)n1cc(-c2ncnc3[nH]ccc23)cn1 (centres unmarked) [Example 135, 4-(1-(1-(4-(3-chlorothiophen-2-ylsulfonyl)piperazin-1-yl)butan-2-yl)-1H-pyrazol-4-yl)-7H-pyrrolo[2,3-d]pyrimidine]
26 | 20 to 50 | < 20 | CCC(CN1CCN(S(=O)(=O)c2cccc(F)c2)CC1)n1cc(-c2ncnc3[nH]ccc23)cn1 (centres unmarked) [Example 136, 4-(1-(1-(4-(3-fluorophenylsulfonyl)piperazin-1-yl)butan-2-yl)-1H-pyrazol-4-yl)-7H-pyrrolo[2,3-d]pyrimidine]
27 | 20 to 50 | < 20 | CCC(CN1CCN(S(=O)(=O)c2ccc(Br)s2)CC1)n1cc(-c2ncnc3[nH]ccc23)cn1 (centres unmarked) [Example 145, 4-(1-(1-(4-(5-bromothiophen-2-ylsulfonyl)piperazin-1-yl)butan-2-yl)-1H-pyrazol-4-yl)-7H-pyrrolo[2,3-d]pyrimidine]
28 | < 20 | < 20 | Cc1c(Nc2ccc(F)c(F)c2)ncnc1N1CCC(C(CC#N)n2cc(-c3ncnc4[nH]ccc34)cn2)CC1 (centres unmarked) [Example 150, 3-(4-(7H-pyrrolo[2,3-d]pyrimidin-4-yl)-1H-pyrazol-1-yl)-3-(1-(6-(3,4-difluorophenylamino)-5-methylpyrimidin-4-yl)piperidin-4-yl)propanenitrile]
